Columns and labels:
Format in all cases: in vivo, human
[1] = system: borderline diabetic patients; assay: Glucose tolerance test (75 g glucose), blood insulin level (IRI), double-blind crossover; details: 10 mg oral, 31 borderline diabetic patients, p<0.05
Description: A glucose tolerance test was performed after administration of corosolic acid or a placebo, in a double-blind crossover manner, and the blood insulin level (IRI: immunoreactive insulin) was assayed.
(§1) First, 31 borderline diabetic patients as test subjects were orally administered corosolic acid (10 mg, >99% purity) or a placebo, and blood was sampled immediately thereafter with the blood insulin level at that time designated as the value at 0 minutes. Immediately after blood sampling, 75 g of glucose was orally administered to each test subject to start a glucose tolerance test, and blood was sampled after periods of 30 minutes, 60 minutes, 90 minutes, 120 minutes and 180 minutes for measurement of the blood insulin level.
FIG. 1 is a graph showing the blood insulin levels during the glucose tolerance test. The horizontal axis represents time (min) after start of the glucose tolerance test, and the vertical axis represents IRI (μU/mL). In the graph, (a) is a case with administration of corosolic acid and (b) is a case with administration of the placebo.

[2] = system: borderline diabetic patients; assay: Glucose tolerance test (75 g glucose), blood glucose level (plasma glucose concentration), double-blind crossover; details: 10 mg oral, 35 borderline diabetic patients, p<0.05
Description: The following test was conducted to confirm that corosolic acid has a hypoglycemic effect. A glucose tolerance test was performed after administration of corosolic acid, banaba extract or a placebo, in a double-blind crossover manner, and the blood glucose level (plasma glucose concentration) was assayed.
as §1, with “35” for “31”, “purity), banaba extract (trade name: COROSOLIA M, product of Use Techno Corporation; administered at 10 mg of corosolic acid)” for “purity)”, “glucose” for “insulin”
FIG. 2 is a graph showing blood glucose levels during the glucose tolerance test. The horizontal axis represents time (min) after start of the glucose tolerance test, and the vertical axis represents plasma glucose concentration (mg/dL). In the graph, (c) is a case with administration of corosolic acid, (d) is a case with administration of banaba leaf extract and (e) is a case with administration of the placebo.

[3] = system: borderline diabetic patients; assay: Blood glucose and blood insulin levels after administration in the absence of glucose load (fasted), crossover double-blind; details: single 10 mg dose; for blood glucose level (G) / blood insulin level (I): fasted, no glucose load; for blood insulin level (I): unit assumed
Description: Three borderline diabetic patients (person, person and person) were instructed to fast from 8:00 pm (to ensure absence of glucose load), and were administered a placebo once or the test agent (corosolic acid) once at 9:00 am on the following day, after which the changes in blood glucose level and blood insulin level were measured. The participants were given absolutely no information regarding placebo or test agent (crossover, double-blind). The corosolic acid was administered in a single 10 mg dose, and each test was conducted twice.
FIG. 3 is a graph showing changes in blood glucose levels with administration of corosolic acid and a placebo in the absence of a glucose load, and FIG. 4 is a graph showing changes in blood insulin levels with administration of corosolic acid and a placebo in the absence of a glucose load.

[4] = 120 minutes after start of glucose tolerance test

C[C@H]1[C@H](C)CC[C@]2(C(=O)O)CC[C@]3(C)C(=CC[C@@H]4[C@@]5(C)C[C@@H](O)[C@H](O)C(C)(C)[C@@H]5CC[C@]43C)[C@H]12 [corosolic acid]
blood insulin level compared to placebo ([1]; 30 minutes after start of glucose tolerance test): significant increase | blood insulin level compared to placebo [1, 4]: significant drop | blood glucose level compared to placebo ([2]; 90 minutes after start of glucose tolerance test): significant decrease | blood glucose level compared to placebo [2, 4]: significant decrease | blood glucose levels, corosolic acid versus placebo ([3]; absence of glucose load, FIG. 3): no significant difference | blood insulin levels, corosolic acid versus placebo ([3]; absence of glucose load, FIG. 4): no significant difference | blood glucose level (G) ([3]; participant A, after 0 min): 110 mg/dL | blood insulin level (I) ([3]; participant A, after 0 min): 9 µU/mL | blood glucose level (G) ([3]; participant A, after 30 min): 104 mg/dL | blood insulin level (I) ([3]; participant A, after 30 min): 6.9 µU/mL | blood glucose level (G) ([3]; participant A, after 60 min): 107 mg/dL | blood insulin level (I) ([3]; participant A, after 60 min): 6.6 µU/mL | blood glucose level (G) ([3]; participant A, after 90 min): 104 mg/dL | blood insulin level (I) ([3]; participant A, after 90 min): 5.9 µU/mL | blood glucose level (G) ([3]; participant A, after 120 min): 104 mg/dL | blood insulin level (I) ([3]; participant A, after 120 min): 6.6 µU/mL | blood glucose level (G) ([3]; participant A, after 180 min): 102 mg/dL | blood insulin level (I) ([3]; participant A, after 180 min): 5.1 µU/mL | blood glucose level (G) ([3]; participant B, after 0 min): 144 mg/dL | blood insulin level (I) ([3]; participant B, after 0 min): 2.5 µU/mL | blood glucose level (G) ([3]; participant B, after 30 min): 143 mg/dL | blood insulin level (I) ([3]; participant B, after 30 min): 2.6 µU/mL | blood glucose level (G) ([3]; participant B, after 60 min): 147 mg/dL | blood insulin level (I) ([3]; participant B, after 60 min): 3 µU/mL | blood glucose level (G) ([3]; participant B, after 90 min): 149 mg/dL | blood insulin level (I) ([3]; participant B, after 90 min): 2 µU/mL | blood glucose level (G) ([3]; participant B, after 120 min): 150 mg/dL | blood insulin level (I) ([3]; participant B, after 120 min): 3.4 µU/mL | blood glucose level (G) ([3]; participant B, after 180 min): 146 mg/dL | blood insulin level (I) ([3]; participant B, after 180 min): 2.4 µU/mL | blood glucose level (G) ([3]; participant C, after 0 min): 90 mg/dL | blood insulin level (I) ([3]; participant C, after 0 min): 4.5 µU/mL | blood glucose level (G) ([3]; participant C, after 30 min): 90 mg/dL | blood insulin level (I) ([3]; participant C, after 30 min): 4.1 µU/mL | blood glucose level (G) ([3]; participant C, after 60 min): 88 mg/dL | blood insulin level (I) ([3]; participant C, after 60 min): 3.9 µU/mL | blood glucose level (G) ([3]; participant C, after 90 min): 86 mg/dL | blood insulin level (I) ([3]; participant C, after 90 min): 4.9 µU/mL | blood glucose level (G) ([3]; participant C, after 120 min): 86 mg/dL | blood insulin level (I) ([3]; participant C, after 120 min): 4 µU/mL | blood glucose level (G) ([3]; participant C, after 180 min): 81 mg/dL | blood insulin level (I) ([3]; participant C, after 180 min): 4 µU/mL

Source: US20050137259A1, “Insulin secretion potentiator” (Use- Techno Corporation, priority 2003, published 2005)
